The data set is described as follows: xn = mol fraction of the nth substance listed. As to conditions: 303.15 K, 100 kPa.

SMILES strings stand for the structures.

As for `CC(=O)[O-].CCCC[N+](CCCC)(CCCC)CCCC` + CCCCN, the viscosity turned out to be 680 mPa·s (x2 = 0); 390 mPa·s (x2 = 0.1); 78 mPa·s (x2 = 0.33); 28 mPa·s (x2 = 0.5); 16 mPa·s (x2 = 0.67); 11 mPa·s (x2 = 0.8). The compound further displayed a viscosity (x2 = 0.9) of 9 mPa·s.
With `CC(=O)[O-].CCCC[N+](CCCC)(CCCC)CCCC` + CC(=O)O, the viscosity is on record as 680 mPa·s (x2 = 0); 460 mPa·s (x2 = 0.1); 297 mPa·s (x2 = 0.2); 169 mPa·s (x2 = 0.33); 83 mPa·s (x2 = 0.5); 41 mPa·s (x2 = 0.67). Also, the viscosity (x2 = 0.8) is given as 25 mPa·s and the viscosity (x2 = 0.9) is 19 mPa·s.

A word on the viscosity: it is the resistance of a fluid to flow. A high value points to sluggish flow.

(Values after a compilation of properties of binary mixtures (doi:10.1039/c7cp04078d).)
